From publication PMC3767324, “Synthesis, Characterization, and BSA Binding Studies of Some New Benzamides Related to Schiff Base” (ISRN Organic Chemistry, 2013)
Converted amounts (≈) assume the structure as drawn.

Experiments:
[1] = superoxide radical scavenging assay (NBT, xanthine-xanthine oxidase system); type: biochemical; conditions: NBT reduction, pH 7.8, 560 nm, three replicates
Protocol: Superoxide radical scavenging activity was measured as described by Kovala-Demertzi et al., (2004). The assay is based on the reduction of nitroblue tetrazolium (NBT) by superoxide ions generated by the xanthine-xanthine oxidase system (X–XO). The reaction system contained 0.2 mM xanthine and 0.6 mM NBT in 0.1 M phosphate buffer, pH 7.8. The tested compounds were dissolved in methanol. The reaction was started by addition of XO (0.07 U mL^−1), an activity which allowed to yield the absorbance change between 0.03 and 0.04 per minute, at 560 nm. The extent of NBT reduction was followed spectrophotometrically, by measuring the increase of the absorbance at 560 nm. All the experiments were replicated three times. The IC50 of each compound was defined as the concentration which inhibited 50% of the NBT reduction by O2 ^•− produced in the X–XO system.
Superoxide anion radical is normally initially formed, and its effects can be magnified because it produces other kinds of free radicals and oxidizing agents. The enzymatic superoxide anion radical was generated by the xanthine/xanthine oxidase reaction system. The production of superoxide was estimated by the nitroblue tetrazolium method. […] Differently, in the m-position, methoxy and hydroxyl groups act as an electron-withdrawing properties, ([…]), which are possible for providing a destabilizing effect.

[2] = tested on: Escherichia coli (NCIM 2574); experiment: minimum inhibitory concentration by dilution method; type: cell-based; conditions: Escherichia coli, NCIM2574; E. coli; dilution method; average of three replicates; read-out: MIC
Protocol: (§1) The in vitro antimicrobial screening effects of the compounds (3 and 5a–j) were individually tested against a panel of bacteria and fungi including Staphylococcus aureus (NCIM 5021), Bacillus subtilis (NCIM 2999), Pseudomonas aeruginosa (NCIM 5029), Escherichia coli (NCIM 2574), Candida. albicans (NCIM 3471), and Aspergillus flavus (NCIM 524). Microbial strains were cultured overnight at 37°C in nutrient and potato dextrose agar medium. All the pure microbial strains were obtained from National Chemical Laboratory (NCL), Pune, India.
(§2) The minimum inhibitory concentration of the synthesized compounds was determined by dilution method. The compounds were dissolved and then diluted using DMSO; two-fold serial concentrations of the compounds were employed to determine the MIC. In this method, the test concentrations of chemically synthesized compounds were made from 5 to 125 μg/mL.

[3] = tested on: Pseudomonas aeruginosa (NCIM 5029); experiment: as above; type: cell-based; conditions: Pseudomonas aeruginosa, NCIM5029; P. aeruginosa; dilution method; average of three replicates; read-out: MIC
Protocol: as §1, §2

[4] = tested on: Staphylococcus aureus (NCIM 5021); experiment: as above; type: cell-based; conditions: Staphylococcus aureus, NCIM5021; S. aureus; dilution method; average of three replicates; read-out: MIC
Protocol: as §1, §2

[5] = tested on: Bacillus subtilis (NCIM 2999); experiment: as above; type: cell-based; conditions: Bacillus subtilis, NCIM2999; B. subtilis; dilution method; average of three replicates; read-out: MIC
Protocol: as §1, §2

[6] = tested on: Aspergillus flavus (NCIM 524); experiment: as above; type: cell-based; conditions: Aspergillus flavus, NCIM524; A. flavus; dilution method; average of three replicates; read-out: MIC
Protocol: as §1, §2

[7] = tested on: A. niger; experiment: as above; type: cell-based; conditions: Aspergillus niger; A. niger; dilution method; average of three replicates; read-out: MIC
Protocol: [The procedure below names another organism; the source lists this organism under the same test.] as §1, §2

[8] = tested on: Escherichia coli (NCIM 2574); experiment: agar disc diffusion, zone of inhibition; type: cell-based; conditions: Escherichia coli, NCIM2574; E. coli; discs 6 mm, test compounds 100 µg/mL in DMSO, standards 10 µg/disc; 37°C 24 h; average of three replicates; read-out: zone of inhibition
Protocol: as §1
(§3) The antibacterial activity of compounds was determined by agar disc diffusion method. Briefly, a suspension of tested bacterial strains was spread on the nutrient agar medium and potato dextrose agar for fungi. The discs (6 mm in diameter) impregnated with test chemicals each dissolved in concentration (100 μg/mL in DMSO) were placed on the inoculated agar and these plates were kept at 4°C for 2 h. The plate was incubated at 37°C for 24 h in case of bacteria and 48 h at 28°C in case of fungi. streptomycin (10 μg/disc) and fluconazole (10 μg/disc) were used as the standards for antibacterial and antifungal activity, respectively. All the samples were performed in triplicate and the zone of inhibition was measured in millimeters.

[9] = tested on: Pseudomonas aeruginosa (NCIM 5029); experiment: agar disc diffusion, zone of inhibition; type: cell-based; conditions: Pseudomonas aeruginosa, NCIM5029; P. aeruginosa; discs 6 mm, test compounds 100 µg/mL in DMSO, standards 10 µg/disc; 37°C 24 h; average of three replicates; read-out: zone of inhibition
Protocol: as §1, §3

[10] = tested on: Staphylococcus aureus (NCIM 5021); experiment: agar disc diffusion, zone of inhibition; type: cell-based; conditions: Staphylococcus aureus, NCIM5021; S. aureus; discs 6 mm, test compounds 100 µg/mL in DMSO, standards 10 µg/disc; 37°C 24 h; average of three replicates; read-out: zone of inhibition
Protocol: as §1, §3

[11] = tested on: Bacillus subtilis (NCIM 2999); experiment: agar disc diffusion, zone of inhibition; type: cell-based; conditions: Bacillus subtilis, NCIM2999; B. subtilis; discs 6 mm, test compounds 100 µg/mL in DMSO, standards 10 µg/disc; 37°C 24 h; average of three replicates; read-out: zone of inhibition
Protocol: as §1, §3

[12] = tested on: Aspergillus flavus (NCIM 524); experiment: agar disc diffusion, zone of inhibition; type: cell-based; conditions: Aspergillus flavus, NCIM524; A. flavus; discs 6 mm, test compounds 100 µg/mL in DMSO, standards 10 µg/disc; 28°C 48 h; average of three replicates; read-out: zone of inhibition
Protocol: as §1, §3

[13] = tested on: A. niger; experiment: agar disc diffusion, zone of inhibition; type: cell-based; conditions: Aspergillus niger; A. niger; discs 6 mm, test compounds 100 µg/mL in DMSO, standards 10 µg/disc; 28°C 48 h; average of three replicates; read-out: zone of inhibition
Protocol: [The procedure below names another organism; the source lists this organism under the same test.] as §1, §3

[14] = DPPH free radical scavenging activity; conditions: DPPH 0.1 mM, absorbance at 517 nm; triplicate, mean ± SD
Protocol: The capacity to scavenge the stable free radical 2,2-diphenyl-1-picrylhydrazyl (DPPH) was monitored according to the Blois method. The test samples (10–100 μL) were mixed with 1 mL of DPPH (0.1 mM) solution and filled up with methanol to a final volume of 4 mL. Absorbance of the resulting solution was measured at 517 nm in a visible spectrophotometer (Model 166, Systronics, India). The free radical scavenging rate of the reaction solution was calculated as a percentage (%) of DPPH decolouration using the equation (1) I(%)=(Ablank−Asample/Ablank)×100, where A blank is the absorbance of the control reaction mixture excluding the test compounds, and A sample is the absorbance of the test compounds. Radical scavenging potential was expressed as IC50 value, which represents the sample concentration at which 50% of the DPPH radicals were scavenged. Tests were carried out in triplicate and the results were expressed as mean values ± standard deviations.
DPPH radical scavenging activity evaluation is a standard assay in antioxidant activity studies and offers a rapid technique for screening the radical scavenging activity of specific compounds [24]. The free radical scavenging activity of newly synthesized compounds was tested by their ability to bleach the stable radical DPPH. The activity was monitored by following the absorption at 517 nm in a visible spectrophotometer. In the presence of any free radical scavenger, this odd electron pairs up and causes the diminishing of absorption band which is proportional to the number of electrons taken up. The activity was studied at different concentrations for each compound. […] Resulting from a color change from purple to yellow the absorbance decreased when the antioxidant molecule can quench DPPH free radical through donation of hydrogen atom or by electron donating to form a stable DPPH molecule.

IC50 Superoxide [1]: 49 ± 0.17 µg/mL (≈ 124 µM)
MIC [2]: 100 µg/mL (≈ 252 µM)
MIC [3]: 100 µg/mL (≈ 252 µM)
MIC [4]: 50 µg/mL (≈ 126 µM)
MIC [5]: 50 µg/mL (≈ 126 µM)
MIC [6]: 75 µg/mL (≈ 189 µM)
MIC [7]: 100 µg/mL (≈ 252 µM)
melting point: 187 °C
IC50 DPPH [14]: 53 ± 0.04 µg/mL (≈ 134 µM)
SMILES: CC(=O)N(C(=O)c1ccccc1C)c1ccc(N=Cc2cc3ccccc3o2)cc1 [Compound 5f, N-acetyl-N-(4-((benzofuran-2-ylmethylene)amino)phenyl)-2-methylbenzamide]
zone of inhibition at 100 µg/mL [8]: 11 mm
zone of inhibition at 100 µg/mL [9]: 10 mm
zone of inhibition at 100 µg/mL [10]: 10 mm
zone of inhibition at 100 µg/mL [11]: 8 mm
zone of inhibition at 100 µg/mL [12]: 10.2 mm
zone of inhibition at 100 µg/mL [13]: 12 mm
